Laboratory results as given in patent US20210276977A1, “BICYCLIC INHIBITORS OF HISTONE DEACETYLASE” (Alkermes, Inc., priority 2018, published 2021).

Key:
Full length Human HDAC1 = target: T1, Full length Human HDAC1 (Homo sapiens, UniProt Q13547); assay: HDAC1 enzymatic assay (deacetylation of FAM-labeled peptide substrate, microfluidic electrophoresis); format: biochemical; conditions: recombinant enzymatic assay
T1 construct: Full length Human HDAC1; His (C); FLAG (C); host or cells: baculovirus expression system
Protocol: (§1) HDAC2 and HDAC1 Enzymatic Assay (HDAC2 and HDAC1 IC50 Data)
(§2) The following describes an assay protocol for measuring the deacetylation of a peptide substrate by HDAC2 or HDAC1.
(§3) HD AC protein composition and respective substrate peptides are summarized below.
(§4) HD AC reactions are assembled in 384 well plates (Greiner) in a total volume of 20 μL as following:
(§5) HDAC proteins are pre-diluted in the assay buffer comprising: 100 mM HEPES, pH 7.5, 0.1% BSA, 0.01% Triton X-100, 25 mM KCl and dispensed into 384 well plate (10 uL per well).
(§6) Test compounds are serially pre-diluted in DMSO and added to the protein samples by acoustic dispensing (Labcyte Echo). Concentration of DMSO is equalized to 1% in all samples.
(§7) Control samples (0%-inhibition in the absence of inhibitor, DMSO only) and 100%-inhibition (in the absence of enzyme) are assembled in replicates of four and used to calculate the %-inhibition in the presence of compounds.
(§8) At this step compounds can be pre-incubated with enzyme if desired.
(§9) The reactions are initiated by addition of 10 uL of the FAM-labeled substrate peptide pre-diluted in the same assay buffer. Final concentration of substrate peptide is 1 uM (HDAC1-2).
(§10) The reactions are allowed to proceed at room temperature. Following incubation, the reactions are quenched by addition of 50 μL of termination buffer (100 mM HEPES, pH7.5, 0.01% Triton X-100, 0.1% SDS). Terminated plates are analyzed on a microfluidic electrophoresis instrument (Caliper LabChip® 3000, Caliper Life Sciences/Perkin Elmer) which enables electrophoretic separation of de-acetylated product from acetylated substrate. A change in the relative intensity of the peptide substrate and product is the parameter measured. Activity in each test sample is determined as the product to sum ratio (PSR): P/(S+P), where P is the peak height of the product, and S is the peak height of the substrate. Percent inhibition (Pinh) is determined using the following equation: Pinh=(PSR0% inh−PSRcompound)/(PSR0% inh−PSR100% inh)*100, in which: PSRcompound is the product/sum ratio in the presence of compound, PSR0% inh is the product/sum ratio in the absence of compound and the PSR100% inh is the product/sum ratio in the absence of the enzyme. To determine IC50 of compounds (50%-inhibition) the %-inh data (Pinh versus compound concentration) are fit by a 4 parameter sigmoid dose-response model using XLfit software (IDBS).
(§11) In the table, “A” indicates a IC50 value of less than 0.5 μM; “B” a IC50 value from 0.5 μM to 1.0 μM; “C” a IC50 value of greater than 1.0 μM and less than or equal to 2.0 μM; and “D” indicates an IC50 value of greater than 2.0 μM. NT=Not Tested.

Full length Human HDAC2 = target: T2, Full length Human HDAC2 (Homo sapiens, UniProt Q92769); assay: HDAC2 enzymatic assay (deacetylation of FAM-labeled peptide substrate, microfluidic electrophoresis); format: biochemical; conditions: recombinant enzymatic assay
T2 construct: Full length Human HDAC2; FLAG (C); host or cells: baculovirus expression system
Protocol: as §1, §2, §3, §4, §5, §6, §7, §8, §9, §10, §11

HDAC2 = target: T3, HDAC2 (Homo sapiens, UniProt Q92769); assay: HDAC2 Enzymatic Inhibition Assay in SH-SY5Y Cell Lysate with an Exogenous Substrate (HDAC-Glo 2); format: cell-based; conditions: SH-SY5Y cells
T3 construct: host or cells: SH-SY5Y cells
Protocol: HDAC2 Enzymatic Inhibition Assay in SH-SY5Y Cell Lysate with an Exogenous Substrate
SH-SY5Y cells (Sigma) were cultured in Eagle's Modified Essential Medium supplemented with 10% fetal bovine serum and pen/strep. Twenty-four hours prior to compound dosing 20 uL of cells were plated in white 384 well plates at a density of 1,500 cells/well. Compounds were serially diluted in neat DMSO and then diluted 1:100 v/v into media without FBS and mixed. Media was removed from the plated cells and the diluted compounds in serum free media (1% v/v final DMSO) were added and incubated at 37° C. for five hours. Ten uL of HDAC-Glo 2 reagent with 0.1% Triton X-100 was then added, the plate was mixed and allowed to develop at room temperature for 100 minutes. Plates were then read with a Spectramax LMax luminometer employing a 0.4 s integration time. Dose response curves were constructed with normalized data where CI-994 at 100 uM was defined as 100% inhibition and DMSO alone as 0% inhibition.
as §11

[1] = five hours incubation, Table 3, class symbols

T1 sequence (Q13547 whole entry): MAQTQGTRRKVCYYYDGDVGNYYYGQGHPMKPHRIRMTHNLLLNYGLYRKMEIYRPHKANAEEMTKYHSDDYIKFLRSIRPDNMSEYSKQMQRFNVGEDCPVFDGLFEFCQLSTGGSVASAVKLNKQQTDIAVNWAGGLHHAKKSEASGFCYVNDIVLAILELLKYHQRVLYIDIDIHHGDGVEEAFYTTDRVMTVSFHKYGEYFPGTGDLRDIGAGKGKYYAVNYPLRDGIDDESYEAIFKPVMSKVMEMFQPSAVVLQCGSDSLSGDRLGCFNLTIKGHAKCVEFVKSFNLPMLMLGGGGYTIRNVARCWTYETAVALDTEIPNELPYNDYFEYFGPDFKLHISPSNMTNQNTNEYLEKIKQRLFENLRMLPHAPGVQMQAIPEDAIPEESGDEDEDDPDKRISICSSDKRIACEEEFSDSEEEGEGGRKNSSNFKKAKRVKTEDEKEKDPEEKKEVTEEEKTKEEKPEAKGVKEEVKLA
T2 sequence (Q92769 whole entry): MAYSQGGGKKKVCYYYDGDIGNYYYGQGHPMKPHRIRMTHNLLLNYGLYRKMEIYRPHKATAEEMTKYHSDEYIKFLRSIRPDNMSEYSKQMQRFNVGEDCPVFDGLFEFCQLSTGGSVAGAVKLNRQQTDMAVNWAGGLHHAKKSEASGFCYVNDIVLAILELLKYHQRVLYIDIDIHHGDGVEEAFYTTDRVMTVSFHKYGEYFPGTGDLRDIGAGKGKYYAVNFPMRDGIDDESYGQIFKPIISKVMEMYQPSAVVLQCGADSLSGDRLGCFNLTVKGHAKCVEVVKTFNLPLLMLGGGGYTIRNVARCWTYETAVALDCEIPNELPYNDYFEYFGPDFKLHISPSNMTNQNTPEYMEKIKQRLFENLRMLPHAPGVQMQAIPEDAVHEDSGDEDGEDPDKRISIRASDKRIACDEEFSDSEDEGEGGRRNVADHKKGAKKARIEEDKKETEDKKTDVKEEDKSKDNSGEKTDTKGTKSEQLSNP
T3 sequence (Q92769 whole entry): as above

IC50 (Full length Human HDAC1; Table 2, class symbols) [nM] | IC50 (Full length Human HDAC2; Table 2, class symbols) [nM] | IC50 (HDAC2; [1]) [nM] | IC50 (Full length Human HDAC1; Table 2, numeric value) [nM] | IC50 (Full length Human HDAC2; Table 2, numeric value) [nM] | IC50 (Full length Human HDAC1; Table 4, numeric) [nM] | IC50 (Full length Human HDAC2; Table 4, numeric) [nM] | IC50 (HDAC2; Table 4, numeric) [nM] | SMILES
< 500 | 500 to 1000 | 1000 to 2000 | – | – | – | – | – | COCc1ccc(CC2CN(C(=O)Nc3nc(-c4ccc(F)cc4)ccc3N)C2)nc1 [Compound 83]
< 500 | 500 to 1000 | 500 to 1000 | – | – | – | – | – | Nc1ccc(-c2ccc(F)cc2F)nc1NC(=O)N1CC(Cc2ncc(F)cn2)C1 [Compound 21]
1000 to 2000 | 1000 to 2000 | 1000 to 2000 | – | – | – | – | – | Cc1cncc(CC2CN(C(=O)Nc3nc(-c4ccc(F)cc4F)ccc3N)C2)n1 [Compound 13]
1000 to 2000 | 500 to 1000 | 500 to 1000 | – | – | – | – | – | Nc1ccc(-c2ccc(F)cc2F)nc1NC(=O)N1CC(Cc2cccnn2)C1 [Compound 23]
500 to 1000 | > 2000 | 500 to 1000 | – | – | – | – | – | Cn1ccnc1CC1CN(C(=O)Nc2nc(-c3ccc(F)cc3)ccc2N)C1 [Compound 71]
< 500 | 500 to 1000 | 1000 to 2000 | – | – | – | – | – | Nc1ccc(-c2cccs2)nc1NC(=O)N1CC(C(F)(F)c2ncccn2)C1 [Compound 70]
500 to 1000 | > 2000 | > 2000 | – | – | – | – | – | Nc1ccc(-c2ccc(F)cc2F)nc1NC(=O)N1CC(CCc2ccccn2)C1 [Compound 43]
– | – | > 2000 | 346 | 1190 | – | – | – | Nc1ccc(-c2ccc(F)cc2)nc1NC(=O)N1CC(Cc2ncc(C(F)(F)F)cn2)C1 [Compound 84]
> 2000 | > 2000 | > 2000 | – | – | – | – | – | Nc1ccc(-c2ccc(F)cc2F)nc1NC(=O)N1CC(CCc2ncccn2)C1 [Compound 44]
> 2000 | > 2000 | > 2000 | – | – | – | – | – | Nc1ccc(-c2ccc(F)cc2)nc1NC(=O)N1CC(Cc2cnc(C(F)(F)F)nc2)C1 [Compound 78]
> 2000 | > 2000 | > 2000 | – | – | – | – | – | Nc1ccc(-c2ccc(F)cc2F)nc1NC(=O)N1CC(Cn2ccnc2)C1 [Compound 31]
500 to 1000 | 1000 to 2000 | 500 to 1000 | – | – | – | – | – | Cc1nccnc1CC1CN(C(=O)Nc2nc(-c3ccc(F)cc3F)ccc2N)C1 [Compound 16]
< 500 | 1000 to 2000 | 500 to 1000 | – | – | – | – | – | Nc1ccc(-c2cccs2)nc1NC(=O)N1CC(Cc2ncccn2)C1 [Compound 68]
> 2000 | > 2000 | 1000 to 2000 | – | – | – | – | – | Cc1cnc(CC2CN(C(=O)Nc3nc(-c4ccc(F)cc4F)ccc3N)C2)nc1 [Compound 7]
< 500 | 500 to 1000 | 500 to 1000 | – | – | 406 | 583 | 687 | Cc1cnc(CC2CN(C(=O)Nc3nc(-c4ccc(F)cc4F)ccc3N)C2)cn1 [Compound 14]
< 500 | 500 to 1000 | 1000 to 2000 | – | – | – | – | – | Nc1ccc(-c2ccc(F)s2)nc1NC(=O)N1CC(Cc2ncccn2)C1 [Compound 66]
– | – | – | – | – | 4580 | 5290 | > 52000 | Nc1ccc(-c2ccc(F)cc2F)nc1NC(=O)N1CC(c2ncccn2)C1 [Comparator A, reference compound]
500 to 1000 | 1000 to 2000 | > 2000 | – | – | – | – | – | Cc1cccc(CC2CN(C(=O)Nc3nc(-c4ccc(F)cc4)ccc3N)C2)n1 [Compound 79]
